Patent EP1210346B1, “NEW ACTIVE MARINE ALKALOIDS” (Instituto Biomar S.A., priority 1999, dated 2001)

Legend:
[1] = Stability in acid and basic media
[2] = system: MEL-28 (monolayer culture of a human melanoma); experiment: Antitumour screening, growth inhibition of MEL-28 cells (adapted Bergeron method, Crystal Violet staining); assay type: cell-based; conditions: SK-MEL-28, 72 h, three days of incubation at 37°C, approximate IC50, duplicate
Protocol: (§1) Cells were maintained in logarithmic phase of growth in Eagle's Minimum Essential Medium, with Earle's Balanced Salts, with 2.0 mM L-glutamine, with non-essential amino acids, without sodium bicarbonate (EMEM/neaa); supplemented with 10% Fetal Calf Serum (FCS), 10^-2 M sodium bicarbonate and 0.1 g/l penicillin-G + streptomycin sulfate.
(§2) A screening procedure has been carried out to determine and compare the antitumour activity of these compounds, using an adapted form of the method described by Bergeron et al (Raymond J Bergeron, Paul F Cavanaugh, Jr, Steven J Kline, Robert G Hughes, Jr, Gary T Elliot and Carl W Porter. Antineoplastic and antiherpetic activity of spermidine catecholamide iron chelators. Biochem. Bioph. Res. Comm. 1984, 121, 848-854). The antitumour cells employed were P-388 (suspension culture of a lymphoid neoplasm from DBA/2 mouse), A-549 (monolayer culture of a human lung carcinoma), HT-29 (monolayer culture of a human colon carcinoma) and MEL-28 (monolayer culture of a human melanoma).
(§3) A-549, HT-29 and MEL-28 cells were seeded into 16 mm wells at 2 x 10^4 cells per well in 1 ml aliquots of MEM 10FCS containing the indicated concentration of drug. […] An approximately IC50 was determined by comparing the growth in wells with drug to the growth in wells control.

[3] = system: Gram-positive bacteria (Staphylococcus and others); experiment: Activity against Gram-positive bacteria; assay type: cell-based
[4] = system: P-388 (suspension culture of a lymphoid neoplasm from DBA/2 mouse); experiment: Antitumour screening, growth inhibition of P-388 cells (adapted Bergeron method); assay type: cell-based; conditions: P388, 72 h, three days of incubation at 37°C, approximate IC50, duplicate
Protocol: as §1, §2
P-388 cells were seeded into 16 mm wells at 1 x 10^4 cells per well in 1 ml aliquots of MEM SFCS containing the indicated concentration of drug. A separate set of cultures without drug was seeded as control growth to ensure that cells remained in exponential phase of growth. All determinations were carried out in duplicate. […]

[5] = system: A-549 (monolayer culture of a human lung carcinoma); experiment: Antitumour screening, growth inhibition of A-549 cells (adapted Bergeron method, Crystal Violet staining); assay type: cell-based; conditions: A549, 72 h, three days of incubation at 37°C, approximate IC50, duplicate
Protocol: as §1, §2, §3

[6] = system: HT-29 (monolayer culture of a human colon carcinoma); experiment: Antitumour screening, growth inhibition of HT-29 cells (adapted Bergeron method, Crystal Violet staining); assay type: cell-based; conditions: 72 h, three days of incubation at 37°C, approximate IC50, duplicate
Protocol: as §1, §2, §3

Compound: COC1=C(C)C(=O)C2=C(C1=O)C1C3CC4=C(C(=O)C(OC)=C(C)C4=O)C(COC(C)=O)N3C(O)C(C2)N1C (stereo not drawn) [Jorumycin]
- stability [1]: highly unstable
- IC50 [2]: 20 nM
- activity against Gram-positive bacteria [3]: showed also activity
- IC50 [4]: 20 nM
- IC50 [5]: 20 nM
- IC50 [6]: 20 nM
